# Test results published in paper PMC5019375, “Characterization of Potent SMAC Mimetics that Sensitize Cancer Cells to TNF Family-Induced Apoptosis” (PLoS ONE, 2016).
# “And” between values parts separate entries of the source, which are not always exact repeats. Equal values may be shown once.
# How the values were obtained:
# [1] = system: PC-3 prostate cancer cells; test: Cytotoxicity assay, sensitization to TNF (CellTiter-Glo); type: cell-based, human; parameters: key to TNF EC50: IN: EC50 too weak to be determined; settings: for EC50 / TNF EC50: 10 nM TNF, 24 h
# Protocol: (§1) Cellular cytotoxicity experiments were conducted in white 96-well flat bottom plates (Greiner Bio-One #655074). PC-3 prostate cancer cells were seeded into microtiter wells in 90 μL RPMI medium with 10% fetal calf serum and antibiotics at 5,000 cells per well, and then incubated overnight at 37°C with 5% CO2/95% air. The next day, compounds diluted into the same culture medium and added in 10 μL aliquots to achieve various final concentrations, maintaining a uniform total volume per well. Either TNF (at 10 nM final) or LT-α (at ~90 pM final) resuspended in 10 μL of RPMI with 10% fetal calf serum and antibiotics was added to wells or an equal volume of medium was applied for the control well. The plates were then further incubated for 24 h. Subsequently, cell viability was assessed by the addition of 25 μL per well of Cell-Titer-Glo reagent (Promega, Inc). Plates were read using a Luminoskan Ascent luminometer.
# (§2) The cellular activity of cIAP1 and cIAP2 inhibitors was evaluated through experiments where cytotoxicity of a human prostate tumor cell line (PC-3) was assessed in the presence or absence of cytokines TNF and LT-α. The experimental approach we used was to provide TNF or LT-α at a fixed concentration, which by itself was non-cytotoxic, then titrate SMAC mimetics into the cell cultures. […] The compound series described in this work has been tested against a broad range of cell lines (data not shown and [23]) and single agent toxicity was only observed for SKOV3 ovarian tumor cells. This agrees with the findings of Varfolomeev, Vince and Lalaoui, respectively.
# cIAP1-BIR3 = cIAP1-BIR3 (Homo sapiens, UniProt Q13490); test: FP competition assay, displacement of SMAC-rhodamine
# Sequence of cIAP1-BIR3 (Q13490 257-356): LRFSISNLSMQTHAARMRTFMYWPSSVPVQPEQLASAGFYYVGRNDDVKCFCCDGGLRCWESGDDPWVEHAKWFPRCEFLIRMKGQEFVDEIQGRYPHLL
# Protocol: (§4) Solutions for assessing SMAC-rhodamine binding to various BIR domains were empirically optimized. […] For cIAP1-BIR3, the assay buffer was 25 mM Hepes [pH 7.5] containing 40 mM β-glycerol phosphate, 1 mM TCEP, and 0.005% Tween 20, typically with 20 nM SMAC-rhodamine. For cIAP1-BIR2, cIAP2-BIR2 and cIAP2-BIR3, assays were performed in 25 mM Hepes [pH 7.5] containing 1 mM TCEP and 0.005% Tween 20, typically with 20 nM SMAC-rhodamine.
# (§5) For cIAP1-BIR2, assays were conducted using 25 mM Hepes [pH 7.5] containing 1 mM TCEP, 0.005% Tween 20, ~1 μM cIAP1-BIR2, and 20 nM SMAC-rhodamine. For cIAP1-BIR3, assays were performed using the same buffered solution, except 40 mM β-glycerol phosphate was added and the cIAP1-BIR3 concentration was reduced to 50 nM. For cIAP2-BIR2, assays included a buffer containing 25 mM Hepes [pH 7.5] containing 1 mM TCEP, 0.005% Tween 20, 1 μM cIAP2-BIR2, and 20 nM SMAC-rhodamine. […] IC50 values were determined with a nonlinear fit using Prism software. Ki values were determined from the IC50 values using an online program developed by Nikolovska-Coleska et al. [26].
# cIAP1-BIR2 = cIAP1-BIR2 (Homo sapiens, UniProt Q13490); test: as above
# Sequence of cIAP1-BIR2 (Q13490 144-260): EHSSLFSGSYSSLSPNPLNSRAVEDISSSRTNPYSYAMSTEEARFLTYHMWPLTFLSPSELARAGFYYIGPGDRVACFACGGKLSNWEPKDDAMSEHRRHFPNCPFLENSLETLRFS
# Protocol: as §4, §5
# cIAP2-BIR3 = cIAP2-BIR3 (Homo sapiens, UniProt Q13489); test: as above
# Sequence of cIAP2-BIR3 (Q13489 243-333): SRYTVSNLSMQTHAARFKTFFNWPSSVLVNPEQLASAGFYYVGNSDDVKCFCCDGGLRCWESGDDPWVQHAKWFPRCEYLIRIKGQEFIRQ
# Protocol: as §4, §5
# cIAP2-BIR2 = cIAP2-BIR2 (Homo sapiens, UniProt Q13489); test: as above
# Sequence of cIAP2-BIR2 (Q13489 129-246): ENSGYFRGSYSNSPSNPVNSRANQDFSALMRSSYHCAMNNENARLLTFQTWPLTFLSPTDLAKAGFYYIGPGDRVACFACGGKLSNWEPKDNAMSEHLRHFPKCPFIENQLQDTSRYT
# Protocol: as §4, §5
# [2] = system: PC-3 prostate cancer cells; test: Cytotoxicity assay, sensitization to LT-α (CellTiter-Glo); type: cell-based, human; parameters: key to LT-α EC50: IN: EC50 too weak to be determined; settings: for EC50 / LT-α EC50: 24 h
# Protocol: as §1, §2
# [3] = molecular target: T1, myc-RIP1 binding to GST-cIAP1-BIR3 (Homo sapiens, UniProt Q13490); test: RIP1 binding, GST pull-down from HEK293T lysates; settings: various concentrations, overnight, 4°C
# T1 construct: purified GST-fusion proteins (GST-cIAP1-BIR3 or GST-cIAP2-BIR3) were added; made in house; host or cells: GST fusion: bacteria (as for the other recombinant proteins); myc-RIP1: transfected HEK293T cell lysate
# T1 sequence (Q13490 257-356 limits assumed): as the sequence (Q13490 257-356) above
# Protocol: (§3) To assess the impact of compounds on cIAP1 and cIAP2 binding to RIP1, 700,000 HEK293T cells were seeded into 100 mm cell-culture plates and transfected the next day with 6 μg of plasmid DNA, myc-RIP1 in pRK5 vector. […] Lysates from 6 plates were pooled and divided into equal 300 μL aliquots, into which 7 μg of purified GST-fusion proteins (GST-cIAP1-BIR3 or GST-cIAP2-BIR3) were added in the presence of various concentrations of SMAC mimetic compounds. The tubes were rocked overnight at 4°C, and the next day 20 μL of glutathione-Sepharose beads (GE Healthcare) was added to each tube and the tubes were rocked for an additional 2 h at 4°C. The GST-fusion proteins were recovered by centrifugation at 2,300 g for 30 sec, then washed 3-times in NP-40 lysis buffer. Finally, 20 μL of 2X Laemmli buffer was added and the samples were boiled, then fractionated by SDS-PAGE, followed by immunoblotting using anti-myc antibody (Roche) for detection of myc-RIP1 and anti-GST antibody (BD Biosciences, La Jolla, CA) for detection of GST-fusion proteins.
# [4] = molecular target: T2, myc-RIP1 binding to GST-cIAP2-BIR3 (Homo sapiens, UniProt Q13489); test: RIP1 binding, GST pull-down from HEK293T lysates; settings: various concentrations, overnight, 4°C
# T2 construct: purified GST-fusion proteins (GST-cIAP1-BIR3 or GST-cIAP2-BIR3) were added; made in house; host or cells: GST fusion: bacteria (as for the other recombinant proteins); myc-RIP1: transfected HEK293T cell lysate
# T2 sequence (Q13489 243-333 limits assumed): as the sequence (Q13489 243-333) above
# Protocol: as §3
# [5] = molecular target: T3, cIAP1 protein in MDA-MB-231 cells (Homo sapiens, UniProt Q13490); test: Immunoblotting of cIAP1 protein levels in cells; type: cell-based; settings: 5 μM, 6 h, immunoblot
# T3 construct: MDA-MB-231 cells contain abundant levels of cIAP1 protein but little cIAP2 protein; endogenous in cells; host or cells: MDA-MB-231
# T3 sequence (Q13490 whole entry): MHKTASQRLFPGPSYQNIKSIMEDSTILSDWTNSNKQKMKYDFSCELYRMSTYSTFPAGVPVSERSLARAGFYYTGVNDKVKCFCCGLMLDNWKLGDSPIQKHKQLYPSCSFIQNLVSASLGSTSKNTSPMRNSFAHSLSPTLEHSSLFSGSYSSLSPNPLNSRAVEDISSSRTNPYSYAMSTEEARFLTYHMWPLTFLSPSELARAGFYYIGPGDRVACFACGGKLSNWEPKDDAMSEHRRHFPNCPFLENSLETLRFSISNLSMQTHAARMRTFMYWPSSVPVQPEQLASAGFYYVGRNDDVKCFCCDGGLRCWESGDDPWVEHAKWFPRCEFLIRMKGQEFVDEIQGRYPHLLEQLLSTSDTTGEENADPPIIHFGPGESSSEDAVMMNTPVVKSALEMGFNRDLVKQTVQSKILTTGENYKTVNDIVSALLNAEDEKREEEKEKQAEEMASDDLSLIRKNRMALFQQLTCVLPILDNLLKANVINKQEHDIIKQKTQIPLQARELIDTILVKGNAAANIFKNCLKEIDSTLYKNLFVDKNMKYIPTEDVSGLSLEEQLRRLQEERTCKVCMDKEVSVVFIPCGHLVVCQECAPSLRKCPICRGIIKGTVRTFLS
# Protocol: To assess the impact of compounds on cIAP1 protein levels in cells, 40,000 MDA-MB-231 cells were cultured in complete medium (RPMI with 10% fetal calf serum and antibiotics) overnight at 37°C in 5% CO2/95% air. The following day compounds at 5 μM (or an equivalent volume of diluent control) were added. After 6 h, cells were recovered by centrifugation, lysed in SDS-sample buffer, and equivolume aliquots of lysates were analyzed by SDS-PAGE/Immunoblotting using antibodies specific for human/mouse cIAP (pan) Mab (clone 315301; R&D Systems #MAB3400) and β-actin (Sigma-Aldrich #A5441) by an enhanced chemiluminescence (ECL) method, essentially as described.
# [6] = cIAP1 BIR3 Ki, 25 mM Hepes pH 7.5, 1 mM TCEP, 0.005% Tween 20, 20 nM SMAC-rhodamine, 40 mM β-glycerol phosphate, ~50 nM protein, Ki calculated from IC50
# [7] = PC-3 cells, cell viability, read-out: TNF EC50
# [8] = PC-3 cells, ~90 pM LT-α, cell viability, read-out: LT-α EC50
# [9] = PC-3 cells, ~90 pM LT-α, cell viability
Structure (SMILES),Ki (cIAP1-BIR3; [6]),Ki (cIAP1-BIR2) [nM],Ki (cIAP2-BIR3) [nM],Ki (cIAP2-BIR2) [nM],further results
CN[C@@H](C)C(=O)N[C@H](C(=O)N1CCC[C@H]1C(=O)N[C@@H]1CCCc2ccccc21)C(C)C [compound 1],20 nM,840,40 ± 10,2340,"EC50 ([2]; Homo sapiens, representative curves, 90 pM LT-α, CellTiter-Glo, read-out: EC50, sensitization of PC-3 tumor cells to LT-α (Fig 5b)): 19 nM; Ki (cIAP1-BIR3; Ki against cIAP1-BIR3, FP assay): 24 ± 1 nM; binding affinity for cIAP1 and cIAP2 compared with XIAP (cIAP1-BIR3; estimated by relative Ki values, cIAP1 and cIAP2 vs XIAP): higher affinity binding to cIAP1 and cIAP2 than XIAP"
CN[C@@H](C)C(=O)N[C@H](C(=O)N[C@@H](CCCNC(N)=N[N+](=O)[O-])C(=O)N[C@@H]1CCCc2ccccc21)C(C)C [compound 9],50 nM,810,70,2620,
CC[C@H](N)C(=O)N[C@H](C(=O)N[C@@H](C)C(=O)Nc1cccc2ccccc12)C(C)C [compound 20],4770 nM,24900,5290,43800,
CN[C@@H](C)C(=O)N[C@@H](CCC(=O)O)C(=O)N[C@@H](C)C(=O)NNc1ccccc1 [compound 29],10900 nM,7670,23000,25100,
CN[C@@H](C)C(=O)N[C@@H](CC(C)C)C(=O)N1CCC[C@H]1C(=O)N[C@@H]1CCCc2ccccc21 [compound 5],60 nM,1330,120,4350,
CN[C@@H](C)C(=O)N[C@H](C(=O)N[C@@H](CCCN=C(N)N)C(=O)NNc1ccccc1)C(C)C [compound 28],1970 nM,4390,1420,15400,

# Now from value to molecule, other results behind:
Ki (cIAP1-BIR3; [6]),Ki (cIAP1-BIR2) [nM],Ki (cIAP2-BIR3) [nM],Ki (cIAP2-BIR2) [nM],Structure (SMILES),further results
3230 nM and 3200 nM,8960,5100,17500,CN[C@@H](C)C(=O)N[C@H](C(=O)N[C@@H](C)C(=O)Nc1cccc2ccccc12)C(C)C [compound 15],"EC50 ([1]; representative curves, CellTiter-Glo, read-out: EC50, sensitization of PC-3 tumor cells to TNF (Fig 5a)): 5300 nM"
20 nM,,,,"CN[C@@H](C)C(=O)N[C@H](C(=O)N1CCC[C@@H]1C(=O)N[C@H]1CCOc2ccccc21)C(C)C [compound 37, reference compound]","EC50 [1, 7]: 30 nM; EC50 [2, 8]: 10 nM; inhibition of myc-RIP1 binding to GST-cIAP1-BIR3 [3]: inhibited binding; inhibition of myc-RIP1 binding to GST-cIAP2-BIR3 [4]: inhibited binding"
> 92400 nM,,,,"CN[C@@H](C)C(=O)N[C@@H](C(=O)N1CCC[C@@H]1C(=O)NNc1cccc(F)c1)C1CCCCC1 [compound 40, reference compound]","TNF EC50 ([1]; PC-3 cells, cell viability): IN^b; LT-α EC50 [2, 9]: IN^b; effect on cIAP1 protein levels in cells [5]: did not; inhibition of myc-RIP1 binding to GST-cIAP1-BIR3 [3]: did not; inhibition of myc-RIP1 binding to GST-cIAP2-BIR3 [4]: did not"
30 nM,,,,"CN[C@@H](C)C(=O)N[C@H](C(=O)N1CSC[C@@H]1C(=O)NC1CCCc2ccccc21)C(C)C (some centres unmarked) [compound 38, reference compound]","EC50 [1, 7]: 60 nM; EC50 [2, 8]: 20 nM; effect on cIAP1 protein levels in cells [5]: caused reductions of cIAP1 protein levels in cells; inhibition of myc-RIP1 binding to GST-cIAP1-BIR3 [3]: inhibited binding; inhibition of myc-RIP1 binding to GST-cIAP2-BIR3 [4]: inhibited binding"
6130 nM and 6100 nM,7390,8290,13600,CN[C@@H](C)C(=O)N[C@H](C(=O)N[C@@H](C)C(=O)NNc1ccccc1)C(C)C [compound 23],"TNF EC50 ([1]; PC-3 cells, cell viability): IN^b; cytotoxicity against PC-3 cells with TNF ([1]; in words): essentially no cytotoxicity; LT-α EC50 [2, 9]: IN^b; cytotoxicity against PC-3 cells with LT-α ([2]; in words): essentially no cytotoxicity"
180 nM and 200 nM,1730,200,3350,CN[C@@H](C)C(=O)N[C@H](C(=O)N1CCC[C@@H]1C(=O)Nc1cccc2ccccc12)C(C)C [compound 16],
80 nM,,,,CN[C@@H](C)C(=O)N[C@H](C(=O)N1CCC[C@H]1C(=O)Nc1ccc2ccccc2n1)C(C)C [compound 39],"EC50 [1, 7]: 70 nM; EC50 [2, 8]: 30 nM"
230 nM,3090,300,6810,CN[C@@H](C)C(=O)N[C@H](C(=O)N[C@@H](CO)C(=O)N[C@@H]1CCCc2ccccc21)C(C)C [compound 14],
